The text below walks through data of the METLIN SMRT retention time set (Domingo-Almenara et al. 2019).

This data set is described as follows: gradient 5% acetonitrile 3 min, to 50% in 2 min, to 85% in 15 min, held 3 min, 100 µL/min. The note with it: column: Zorbax Extend-C18 2.1 x 50 mm; eluents: water / acetonitrile, 0.1% formic acid. The essentials: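 Pure standards were run in mixtures of ~100 molecules by HPLC coupled to a quadrupole time-of-flight mass spectrometer. The column was a Zorbax Extend-C18 (2.1 × 50 mm, 1.8 μm) at 100 μL/min, with water and acetonitrile each containing 0.1% formic acid, in positive and negative ionization mode. Dead and dwell volumes were 40 μL and 900 μL. Retention time was taken from computationally picked adduct peaks, each manually inspected, with data collected over 3 months.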
For the molecule `CSc1ccc(CNC(=O)C2CCCN(c3ncnc4nn(-c5ccc(C)cc5)cc34)C2)cc1` (centres undefined), the RP-LC retention time was 750 s. With `CCS(=O)(=O)N1CC(=O)N(c2cccc(F)c2)C(C)(C(=O)NC2CCCCCCC2)C1` (centres undefined), the RP-LC retention time was determined as 956 s. Consider `CC(NC(=O)c1cc(-c2ccccc2)cn1C)c1ccccn1` (centres undefined), for which the RP-LC retention time was 703 s.

For `Cn1c(-c2ccccc2)nn(CCNS(=O)(=O)c2ccc(Cl)s2)c1=O`, the RP-LC retention time came out at 748 s. As for `CCN(CCCNC(=O)Cn1ccc2c(=O)n(C)c(=O)n(C)c21)c1ccccc1`, the RP-LC retention time is 578 s. `CCc1nc2cc(N3CCC(C(=O)NCc4ccc(F)cc4)CC3)cnc2nc1CC` yielded an RP-LC retention time of 851 s.

As to `Cc1ccc(CNC(=O)CCC2CCCN(S(=O)(=O)c3ccccc3C)C2)cc1` (centres undefined), the RP-LC retention time was found to be 1010 s. The figure for `CC(=O)O[C@@H]1CC[C@@]2(C)[C@H](C1)[C@H](OC(C)=O)C[C@@H]1[C@@H]2C[C@H]2[C@@H]3CN4C[C@H](C)CC[C@H]4[C@H](C)[C@H]3CC[C@@]12O` is 716 s. The figure for `COCC(=O)NC1CCC12CCN(C(C)=O)CC2` (centres undefined) is 589 s.

`CCc1c(C)nc2ncnn2c1N1CCCC1`: the RP-LC retention time was found to be 733 s.

In turn, `Cc1ccc(NC(=O)N2CCc3nc(-c4ccccc4)ncc3C2)cc1F` yielded an RP-LC retention time of 988 s. For the molecule `COc1ccc(N2CCN(C(=O)Cn3cccc3-c3nnc(-c4ccccc4)o3)CC2)cc1`, the RP-LC retention time came to 907 s. Molecule `O=c1ccn(-c2ccc(Cl)cc2)nc1-c1nc(-c2cccc(F)c2)no1` had an RP-LC retention time of 954 s. The molecule `Cc1nc(Cn2cccc2C(=O)Nc2ccc(C)c(C)c2)no1` had an RP-LC retention time of 910 s. To `COc1cc(OC)cc(C(=O)N(C)CCc2noc(-c3ccc(C(=O)N4CCCC4)cc3)n2)c1` belongs 759 s; to `CCn1ccc2sc(C)c(C(=O)NCCC(C)C)c2c1=O`, 806 s; to `CCc1ccc(C(C)NC(=O)c2ccnc3c(NC(C)=O)cccc23)cc1` (centres undefined), 896 s. To `COCCC1CCN(C(=O)COc2cccc(Cl)c2)CC1` belongs 855 s; to `COc1ccc(OCc2noc(CNC(=O)CCC(=O)c3ccccc3)n2)cc1`, 712 s; to `O=C(Cn1ccc2ccccc21)Nc1ccccc1OC(F)(F)F`, 610 s. To `CCOC(=O)C(C)Sc1nnc2n1CCN2c1ccc(F)cc1` (centres undefined) belongs 718 s. `N#CC1=C2CCCCC2(O)NC1=O` (centres undefined) showed an RP-LC retention time of 655 s. To `CCn1ncc(NC(=O)COc2ccc(F)cc2)c(N2CCCCC2)c1=O` belongs 793 s; to `COc1cccc(CNC2=NCCNC23CCN(S(=O)(=O)c2ccc(F)cc2)CC3)c1`, 695 s. The figure for `COc1c2c(cc3c1[C@@H]1Oc4c(ccc(O)c4CC=C(C)C)[C@@H]1CO3)OC(C)(C)C=C2` is 710 s; for `O=C(Nc1ccc(F)cc1)C1CCN(S(=O)(=O)c2cc(C(=O)N3CCOCC3)cs2)CC1` it is 755 s. Consider `CC1(C)Cc2cccc(OCC(=O)N3CCN(Cc4nnnn4-c4ccccc4)CC3)c2O1`, for which the RP-LC retention time amounted to 811 s. On to `CCc1ccc(NC(=O)C2CCN(S(=O)(=O)c3ccc4c(c3)NC(=O)C(C)O4)CC2)cc1` (centres undefined), for which the RP-LC retention time was 927 s. To `CCNC(=O)c1nnc(-c2ccc(S(=O)(=O)N3CCC(C)CC3)cc2)o1` belongs 875 s; to `Cc1ccc(C)c2sc(NCc3ccccn3)nc12`, 641 s. `O=C(NCc1csc(C2CCCN(C(=O)c3ccc(F)cc3F)C2)n1)C1CC1` (centres undefined) registered an RP-LC retention time of 717 s. The figure for `CCOc1ccc(C(=O)NCc2ccc3c(c2)Sc2ncccc2C(=O)N3CC)cc1` is 791 s; for `Cc1ccccc1NC(=O)/C=N/O` it is 636 s. The molecule `Cc1ccc(NC(=O)CCNc2cnc3cnccn23)cc1Cl` had an RP-LC retention time of 590 s. To `CCN(c1ccccc1)S(=O)(=O)c1cc(-c2[nH]ncc2C(=O)N2CCOCC2)oc1C` belongs 718 s; to `O=C(NCc1ccc(F)c(Cl)c1)c1ccc(NC(=O)C2CCC2)cc1N1CCOCC1`, 909 s; to `CCCCOC(=O)c1ccc(NC(=O)c2c(OC)cc(=O)n3c2CCCC3)cc1`, 857 s. To `COC(=O)c1cc(C2CC2)nc2c1c(=O)n(Cc1cccc(Cl)c1)c(=O)n2C` belongs 1160 s; to `Cc1ccc(-c2nnc(Cc3nc(-c4cccc(C)c4)no3)o2)cc1`, 1110 s; to `CCN1CCN(CCCNC(=O)C2CCN(Cc3cn(C)c4ccc(Cl)cc34)CC2)CC1`, 564 s.

Regarding `Cc1ccc(OCC(=O)Nc2nnc(SCc3nnc(-c4ccccc4)o3)s2)c(C)c1`, the RP-LC retention time was 998 s. To `Cc1c(-c2ccnc(N3CCOCC3)n2)cnc2nc(-c3ccc(Cl)cc3)nn12` belongs 1030 s; to `CC(=O)Nc1ccc(NC(=O)Cn2nc(C(=O)N3CCCCC3)c3ccccc32)cc1`, 678 s; to `CCN(CC)S(=O)(=O)c1cc(-c2nnc(-c3ccccc3OC)o2)ccc1OC`, 903 s. For `COc1cc(-c2nc3nc4ccccc4nc3n2CC2CCCO2)cc(OC)c1OC` (centres undefined), the RP-LC retention time stood at 795 s.

With `O=C1NC2(CCN(C(=O)c3ccccc3F)CC2)Nc2c(Cl)cccc21`, the RP-LC retention time turned out to be 742 s. To `COc1cc(OC)cc(-c2nc(C3CC(=O)N(c4ccc(Cl)cc4)C3)no2)c1` (centres undefined) belongs 1290 s; to `CC(C)CNC(=O)N1CCCC(CCc2nnc(-c3cnccn3)o2)C1` (centres undefined), 697 s. For `CCc1cccc(NC(=O)C2CCN(S(=O)(=O)c3ccc4c(c3)sc(=O)n4CC)CC2)c1`, the RP-LC retention time was 932 s. The figure for `CN(c1cccc(Cl)c1)S(=O)(=O)c1cc2n(c1)CCCNC2=O` is 726 s. `COc1ccccc1NC(=O)Nc1c(C)nc2ccc(C)cn2c1=O` had an RP-LC retention time of 616 s.

Take `O=C(CN1CCCC1=O)NCc1ccccc1C(F)(F)F`: the RP-LC retention time came out at 680 s. On to `O=C(O)c1ccc2c(c1)N(S(=O)(=O)c1ccccc1F)CC2`, for which the RP-LC retention time stood at 789 s.

Regarding `CCOc1ccc(-n2cc(-c3nc(-c4cccc(OC)c4)no3)c3ccccc3c2=O)cc1`, the RP-LC retention time was found to be 1390 s. Consider `COc1cccc(-n2c(=O)c(C(=O)Nc3ccccc3F)c(O)c3cccnc32)c1`, for which the RP-LC retention time worked out at 1200 s. To `Cc1cccc(OCc2nc(CCN(C)C(=O)NCc3ccco3)no2)c1` belongs 844 s; to `Cc1ccccc1-c1noc(CCc2nnc3ccc(N4CCN(c5ccccn5)CC4)nn23)n1`, 647 s. As for `O=C(Nc1ccc(F)cc1)C1CCN(C(=O)c2ncn3c2COC(c2ccc(F)cc2)C3)CC1` (centres undefined), the RP-LC retention time amounted to 798 s. The figure for `CCc1nc2cc(-c3noc(-c4cccc(N(C)C)c4)n3)ccc2o1` is 1230 s.
